The numbers were not newly measured in US10526334B2, “Methods for preparing bis-tetrahydroisoquinoline-containing compounds” (California Institute of Technology, priority 2017, dated 2020), which cites them from elsewhere.

Read-outs that look alike come from different tables or passages of the source.

Broadly, the IC50 is the concentration needed to halve the response being measured.

Test in data set [1]: not given
The source holds these as a separate data set.

Where [2] appears, read: read-out: IC50 (A549 lung cancer).

In the case of `COc1cc2c(cc1O)CCN[C@]21CS[C@@H]2c3c(OC(C)=O)c(C)c4c(c3[C@H](COC1=O)N1[C@@H]2[C@H]2c3c(cc(C)c(OC)c3O)C[C@@H]([C@@H]1O)N2C)OCO4` [Et 743, ecteinascidin 743], the values for the IC50 with A375 melanoma and with A549 lung cancer (setting [2]) were 0.15 nM and 1 nM, respectively. Also, the “t1/2 (human)” value (human) is 96 to 180 h. Besides, the “in vivo half-life (t1/2)” value (in humans) is 96 to 180 h and the “in vivo half-life (t1/2)” value in data set [1] (in rodents) is 20 h. Further, the “t1/2 (rodent)” value in data set [1] (rodent) is 20 h.
Regarding `COC1=C(C)C(=O)C2=C(C1=O)[C@@H]1[C@@H]3CC4=C(C(=O)C(OC)=C(C)C4=O)[C@H](COC(C)=O)N3[C@@H](O)[C@H](C2)N1C` [Jorumycin, jorumycin], the values for the IC50 in the data set on A549 lung cancer (read-out: IC50 vs. A549 lung cancer), with HCT116 colon cancer and with DU145 prostate cancer were 0.24 nM, 0.57 nM and 0.49 nM, respectively.
As to `COc1c(C)c(OC)c2c(c1O)[C@@H]1[C@@H]3Cc4c(OC)c(C)c(OC)c(O)c4[C@H](CNC(=O)c4ccc5ccccc5n4)N3[C@@H](C#N)[C@H](C2)N1C` [QAD], the IC50 is 1.3 nM in the data set with A375 melanoma and 4.4 nM in the data set with A549 lung cancer (setting [2]). In addition, the “rodent in vivo half-life” value in data set [1] (rodent) was 0.283 h.
